{"source": "patent US8475827B2", "about": "“Tissue implants for implantation and methods for preparing the same” (CryoLife, Inc., priority 2010, dated 2013)", "origin": "cited, not measured here", "tested_on": "sensitive bacteria", "settings": "literature review"}
{"compound": "NCC[C@H](O)C(=O)N[C@@H]1C[C@H](N)[C@@H](O[C@H]2O[C@H](CN)[C@@H](O)[C@H](O)[C@H]2O)[C@H](O)[C@H]1O[C@H]1O[C@H](CO)[C@@H](O)[C@H](N)[C@H]1O", "note": "[amikacin]", "values": [{"measurement": "minimum inhibitory concentration against sensitive bacteria (MIC) range", "result": "0.125 to 32", "unit": "µg/mL"}]}
